Measurements taken from patent publication US20090226398A1, “ANTI-VIRAL COMPOUNDS, COMPOSITIONS, AND METHODS OF USE” (Genelabs Technologies, Inc., priority 2008, published 2009).
pEC50: −log10 of the molar value.

Tested on: HCV replication
Assay: Replicon Assay (Huh-lucubineo-ET cells, luciferase readout)
Format: cell-based
Details: Hepatitis C virus; ET (Huh-lucubineo-ET) HCV replicon cell line; luciferase activity 48-72 hours after compound addition; 6 dilutions
Procedure: A cell line, ET (Huh-lucubineo-ET) was used for screening of compounds of the present invention for inhibition of HCV replication. The ET cell line was stably transfected with RNA transcripts harboring a I389luc-ubi-neo/NS3-3′/ET; replicon with firefly luciferase-ubiquitin-neomycin phosphotransferase fusion protein and EMCV-IRES driven NS3-5B polyprotein containing the cell culture adaptive mutations (E1202G; T1280I; K1846T) (Krieger at al, 2001 and unpublished). The ET cells were grown in DMEM, supplemented with 10% fetal calf serum, 2 mM Glutamine, Penicillin (100 IU/mL)/Streptomycin (100 μg/mL), 1× nonessential amino acids, and 250 μg/mL G418 (“Geneticin”). They were all available through Life Technologies (Bethesda, Md.). The cells were plated at 0.5−1.0×10^4 cells/well in the 96 well plates and incubated for 24 hrs before adding the test compounds. The compounds were then added to the cells to achieve a final concentration of 5 or 50 μM. Luciferase activity was measured 48-72 hours later by adding a lysis buffer and the substrate (Catalog number Glo-lysis buffer E2661 and Bright-Glo luciferase system E2620 Promega, Madison, Wis.). Cells should not be too confluent during the assay. Percent inhibition of replication was plotted relative to no compound control. For EC50 (effective concentration at which 50% of the maximum inhibition is observed) determinations, 6 dilutions of each compound were used. Compounds were typically diluted 3 fold to span a concentration range of 250 fold. EC50 and similarly TC50 values were calculated by fitting % inhibition at each concentration to the following equation:
% inhibition=100%/[(EC50/[I])^b+1]
where b is Hill's coefficient.

Compound | pEC50
COc1ccc(-c2ccc(Cn3cc4nc(-c5cccc(F)c5F)nc-4cn3)nc2O)c(C(F)(F)F)c1 [Compound 359, 6-[2-(2,3-Difluoro-phenyl)-imidazo[4,5-d]pyridazin-5-ylmethyl]-3-(4-methoxy-2-trifluoromethyl-phenyl)-pyridin-2-ol] | 5.65
Fc1cccc(-c2nc3cnn(Cc4ccc(-c5ccc(-c6cn[nH]c6)cc5C(F)(F)F)nn4)cc-3n2)c1F [Compound 203, 2-(2,3-Difluoro-phenyl)-5-{6-[4-(1H-pyrazol-4-yl)-2-trifluoromethyl-phenyl]-pyridazin-3-ylmethyl}-5H-imidazo[4,5-d]pyridazine] | 4.68
Fc1cccc(-c2nc3cnn(Cc4ccc(-c5ccc(-c6ccccn6)cc5C(F)(F)F)nn4)cc-3n2)c1F [Compound 331, 2-(2,3-Difluoro-phenyl)-5-[6-(4-pyridin-2-yl-2-trifluoromethyl-phenyl)-pyridazin-3-ylmethyl]-5H-imidazo[4,5-d]pyridazine] | ≤ 4.30
O=[N+]([O-])c1cccc(Cn2cc3nc(-c4cccc(F)c4F)nc-3cn2)c1 [Compound 290, 2-(2,3-Difluoro-phenyl)-5-(3-nitro-benzyl)-5H-imidazo[4,5-d]pyridazine] | ≤ 4.30
CCCOc1ccc(-c2ccc(Cn3cc4nc(-c5ccccc5F)nc-4cn3)cn2)c(C(F)(F)F)c1 [Compound 323, 2-(2-Fluoro-phenyl)-5-[6-(4-propoxy-2-trifluoromethyl-phenyl)-pyridin-3-ylmethyl]-5H-imidazo[4,5-d]pyridazine] | 7.48
Fc1cccc(-c2nc3cnn(Cc4ccc(N5CCOCC5)nn4)cc-3n2)c1F [Compound 355, 2-(2,3-Difluoro-phenyl)-5-(6-morpholin-4-yl-pyridazin-3-ylmethyl)-5H-imidazo[4,5-d]pyridazine] | ≤ 4.30
CCCOc1ccc(-c2ccc(Cn3cc4nc(-c5cccc(F)c5F)nc-4cn3)c(N)n2)c(C(F)(F)F)c1 [Compound 232, 3-[2-(2,3-Difluoro-phenyl)-imidazo[4,5-d]pyridazin-5-ylmethyl]-6-(4-propoxy-2-trifluoromethyl-phenyl)-pyridin-2-ylamine] | 7.74
Cc1nc(-c2ccc(Cn3cc4nc(-c5cccc(F)c5F)nc-4cn3)cc2)cs1 [Compound 268, 2-(2,3-Difluoro-phenyl)-5-[4-(2-methyl-thiazol-4-yl)-benzyl]-5H-imidazo[4,5-d]pyridazine] | ≤ 4.30
COc1ccc(-c2ccc(Cn3cc4nc(-c5cccc(F)c5F)nc-4cn3)nn2)c(Cl)c1 [Compound 228, 5-[6-(2-Chloro-4-methoxy-phenyl)-pyridazin-3-ylmethyl]-2-(2,3-difluoro-phenyl)-5H-imidazo[4,5-d]pyridazine] | 6.95
Fc1cccc(-c2nc3cnn(Cc4ccc(-c5ccc(Br)c(C(F)(F)F)c5)cc4)cc-3n2)c1F [Compound 344, 5-(4′-Bromo-3′-trifluoromethyl-biphenyl-4-ylmethyl)-2-(2,3-difluoro-phenyl)-5H-imidazo[4,5-d]pyridazine] | 6.49
Fc1cc(Cn2cc3nc(-c4cccc(F)c4F)nc-3cn2)ccc1Br [Compound 309, 5-(4-Bromo-3-fluoro-benzyl)-2-(2,3-difluoro-phenyl)-5H-imidazo[4,5-d]pyridazine] | 4.21
COc1ccc(-c2ccc(Cn3cc4nc(-c5cccc(F)c5F)nc-4cn3)c(OC)c2)c(C(F)(F)F)c1 [Compound 294, 2-(2,3-Difluoro-phenyl)-5-(3,4′-dimethoxy-2′-trifluoromethyl-biphenyl-4-ylmethyl)-5H-imidazo[4,5-d]pyridazine] | 6.33
O=[N+]([O-])c1cc(C(F)(F)F)ccc1-c1ccc(Cn2cc3nc(-c4cccc(F)c4F)nc-3cn2)cn1 [Compound 286, 2-(2,3-Difluoro-phenyl)-5-[6-(2-nitro-4-trifluoromethyl-phenyl)-pyridin-3-ylmethyl]-5H-imidazo[4,5-d]pyridazine] | 7.23
Cc1ccc(-c2ccc(Cn3cc4nc(-c5cccc(F)c5F)nc-4cn3)nc2)c(C(F)(F)F)c1 [Compound 239, 2-(2,3-Difluoro-phenyl)-5-[5-(4-methyl-2-trifluoromethyl-phenyl)-pyridin-2-ylmethyl]-5H-imidazo[4,5-d]pyridazine] | 7.20
Fc1cccc(-c2nc3cnn(Cc4ccc(C(F)(F)F)cc4C(F)(F)F)cc-3n2)c1F [Compound 263, 5-(2,4-Bis-trifluoromethyl-benzyl)-2-(2,3-difluoro-phenyl)-5H-imidazo[4,5-d]pyridazine] | ≤ 4.30
COc1ccc(-c2ccc(Cn3cc4nc(-c5cccc(F)c5F)nc-4cn3)nn2)c(OC)c1 [Compound 207, 2-(2,3-Difluoro-phenyl)-5-[6-(2,4-dimethoxy-phenyl)-pyridazin-3-ylmethyl]-5H-imidazo[4,5-d]pyridazine] | ≤ 4.30

Compound | pEC50
Fc1cccc(-c2nc3cnn(Cc4ccc(-c5ccccn5)cc4)cc-3n2)c1F [Compound 299, 2-(2,3-Difluoro-phenyl)-5-(4-pyridin-2-yl-benzyl)-5H-imidazo[4,5-d]pyridazine] | ≤ 4.30
CCCOc1ccc(-c2ccc(Cn3cc4nc(-c5cccc(F)c5F)nc-4cn3)cc2N)cc1 [Compound 357, 4-[2-(2,3-Difluoro-phenyl)-imidazo[4,5-d]pyridazin-5-ylmethyl]-4′-propoxy-biphenyl-2-ylamine] | ≤ 4.30
Fc1cccc(-c2nc3cnn(Cc4ccc(-c5ccc6c(c5)OCO6)nn4)cc-3n2)c1F [Compound 219, 5-(6-Benzo[1,3]dioxol-5-yl-pyridazin-3-ylmethyl)-2-(2,3-difluoro-phenyl)-5H-imidazo[4,5-d]pyridazine] | ≤ 4.30
CNc1cccc(-c2nc3cnn(Cc4ccc(-c5ccc(C(F)(F)F)cc5C(F)(F)F)nc4)cc-3n2)c1F [Compound 339, (3-{5-[6-(2,4-Bis-trifluoromethyl-phenyl)-pyridin-3-ylmethyl]-5H-imidazo[4,5-d]pyridazin-2-yl}-2-fluoro-phenyl)-methyl-amine] | 4.84
Fc1cccc(-c2nc3cnn(Cc4ccc(/C=C/c5ccccc5)cc4)cc-3n2)c1F [Compound 281, 2-(2,3-Difluoro-phenyl)-5-(4-styrylbenzyl)-5H-imidazo[4,5-d]pyridazine] | 5.74
Fc1cccc(-c2nc3cnn(Cc4cccc(Oc5ccccc5)c4)cc-3n2)c1F [Compound 279, 2-(2,3-Difluoro-phenyl)-5-(3-phenoxy-benzyl)-5H-imidazo[4,5-d]pyridazine] | 4.70
COc1ccc(-c2ccc(Cn3cc4nc(-c5cccc(F)c5F)nc-4cn3)c(N)c2)c(C(F)(F)F)c1 [Compound 334, 4-[2-(2,3-Difluoro-phenyl)-imidazo[4,5-d]pyridazin-5-ylmethyl]-4′-methoxy-2′-trifluoromethyl-biphenyl-3-ylamine] | 7.70
COc1ccc(-c2cnc(Cn3cc4nc(-c5cccc(F)c5F)nc-4cn3)cn2)c(C(F)(F)F)c1 [Compound 306, 2-(2,3-Difluoro-phenyl)-5-[5-(4-methoxy-2-trifluoromethyl-phenyl)-pyrazin-2-ylmethyl]-5H-imidazo[4,5-d]pyridazine] | 7.64
Fc1cccc(-c2nc3cnn(Cc4cccc(-c5ccncc5)c4)cc-3n2)c1F [Compound 301, 2-(2,3-Difluoro-phenyl)-5-(3-pyridin-4-yl-benzyl)-5H-imidazo[4,5-d]pyridazine] | 4.46
COc1ccc(-c2ccc(Cn3cc4nc(-c5cccc(F)c5F)nc-4cn3)cc2[N+](=O)[O-])c(C(F)(F)F)c1 [Compound 258, 2-(2,3-Difluoro-phenyl)-5-(4′-methoxy-2-nitro-2′-trifluoromethyl-biphenyl-4-ylmethyl)-5H-imidazo[4,5-d]pyridazine] | 6.64
CCCOc1ccc(-c2cnc(Cn3cc4nc(-c5cccc(F)c5F)nc-4cn3)nc2)c(C(F)(F)F)c1 [Compound 266, 2-(2,3-Difluoro-phenyl)-5-[5-(4-propoxy-2-trifluoromethyl-phenyl)-pyrimidin-2-ylmethyl]-5H-imidazo[4,5-d]pyridazine] | 6.66
COCc1ccc(-c2ccc(Cn3cc4nc(-c5cccc(F)c5F)nc-4cn3)nn2)cc1 [Compound 213, 2-(2,3-Difluoro-phenyl)-5-[6-(4-methoxymethyl-phenyl)-pyridazin-3-ylmethyl]-5H-imidazo[4,5-d]pyridazine] | ≤ 4.30
Cc1noc(-c2ccc(Cn3cc4nc(-c5cccc(F)c5F)nc-4cn3)cc2)n1 [Compound 313, 2-(2,3-Difluoro-phenyl)-5-[4-(3-methyl-[1,2,4]oxadiazol-5-yl)-benzyl]-5H-imidazo[4,5-d]pyridazine] | ≤ 4.30
Fc1cccc(-c2nc3cnn(Cc4ccc(-c5ccc(Br)c(C(F)(F)F)c5)nc4)cc-3n2)c1F [Compound 298, 5-[6-(4-Bromo-3-trifluoromethyl-phenyl)-pyridin-3-ylmethyl]-2-(2,3-difluorophenyl)-5H-imidazo[4,5-d]pyridazine] | ≤ 4.30
Fc1cccc(-c2nc3cnn(Cc4cccc(C(F)(F)F)c4)cc-3n2)c1F [Compound 289, 2-(2,3-Difluoro-phenyl)-5-(3-trifluoromethyl-benzyl)-5H-imidazo[4,5-d]pyridazine] | ≤ 4.30
